Literature values in paper PMC9377007, “An Unexpected Deuterium-Induced Metabolic Switch in Doxophylline” (ACS Medicinal Chemistry Letters, 2022).

Assays:
[1] = system: antibronchospastic and antiasthmatic effects; set-up: method as in PMID 1652045; settings: ref [31]; cited from earlier work
PDE-III and IV isozymes = system: PDE-III and IV isozymes; set-up: method as in PMID 1328102; settings: ref [30]; cited from earlier work

SMILES: Cn1c(=O)c2c(ncn2CCO)n(C)c1=O [etophylline, 7-hydroxyethyltheophylline]
- antibronchospastic and antiasthmatic effects relative to doxophylline [1]: significantly less active than doxophylline

SMILES: Cn1c(=O)c2c(ncn2CC(=O)O)n(C)c1=O [T-COOH, 7-theophylline acetic acid]
- inhibition of PDE-III and IV isozymes (PDE-III and IV isozymes): specific inhibition
